Legend:
Test in all cases: CYP450 Enzyme Inhibition Assay
Cytochrome P450 2D6 = Cytochrome P450 2D6 (Homo sapiens, UniProt P10635)
Description: (§1) The purpose of this study was to evaluate the effect of the test compound on the activity of five isoenzymes (CYP1A2, CYP2C9, CYP2C19, CYP2D6 and CYP3A4) of human liver microsomal cytochrome P450 (CYP) by using an in vitro testing system. The specific probe substrates of CYP450 isoenzymes were incubated with human liver microsomes and test compounds of different concentrations, and reduced nicotinamide adenine dinucleotide phosphate (NADPH) was added to initiate the reaction. After the completion of the reaction, the sample was treated and liquid chromatography-tandem mass spectrometry (LC-MS/MS) was used to quantitatively detect metabolites produced by specific substrates, changes in CYP enzyme activity were determined, and IC50 value was calculated to evaluate the inhibitory potential of the test compound on each CYP enzyme subtype.

Cytochrome P450 3A4 = Cytochrome P450 3A4 (Homo sapiens, UniProt P08684)
Description: as §1

Cytochrome P450 2C19 = Cytochrome P450 2C19 (Homo sapiens, UniProt P33261)
Description: as §1

Cytochrome P450 2C9 = Cytochrome P450 2C9 (Homo sapiens, UniProt P11712)
Description: as §1

Cytochrome P450 1A2 = biological target: T1, Cytochrome P450 1A2 (Homo sapiens, UniProt P05177)
T1 sequence (P05177 whole entry): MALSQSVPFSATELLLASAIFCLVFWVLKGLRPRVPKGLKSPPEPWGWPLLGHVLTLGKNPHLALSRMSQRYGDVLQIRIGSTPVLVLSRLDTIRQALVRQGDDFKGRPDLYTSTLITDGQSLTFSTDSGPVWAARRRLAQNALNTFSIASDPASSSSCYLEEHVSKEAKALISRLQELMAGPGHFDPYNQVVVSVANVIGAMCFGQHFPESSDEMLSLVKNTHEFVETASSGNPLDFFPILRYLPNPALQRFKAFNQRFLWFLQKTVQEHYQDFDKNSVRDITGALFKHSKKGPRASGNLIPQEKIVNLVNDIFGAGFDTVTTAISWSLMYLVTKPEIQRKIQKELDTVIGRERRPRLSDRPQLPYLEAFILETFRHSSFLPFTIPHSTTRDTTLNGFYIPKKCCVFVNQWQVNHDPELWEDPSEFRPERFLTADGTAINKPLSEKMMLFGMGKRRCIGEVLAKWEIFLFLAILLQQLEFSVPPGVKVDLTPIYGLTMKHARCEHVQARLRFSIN
Description: as §1

Cytochrome P450 3A4, sequence (P08684 whole entry): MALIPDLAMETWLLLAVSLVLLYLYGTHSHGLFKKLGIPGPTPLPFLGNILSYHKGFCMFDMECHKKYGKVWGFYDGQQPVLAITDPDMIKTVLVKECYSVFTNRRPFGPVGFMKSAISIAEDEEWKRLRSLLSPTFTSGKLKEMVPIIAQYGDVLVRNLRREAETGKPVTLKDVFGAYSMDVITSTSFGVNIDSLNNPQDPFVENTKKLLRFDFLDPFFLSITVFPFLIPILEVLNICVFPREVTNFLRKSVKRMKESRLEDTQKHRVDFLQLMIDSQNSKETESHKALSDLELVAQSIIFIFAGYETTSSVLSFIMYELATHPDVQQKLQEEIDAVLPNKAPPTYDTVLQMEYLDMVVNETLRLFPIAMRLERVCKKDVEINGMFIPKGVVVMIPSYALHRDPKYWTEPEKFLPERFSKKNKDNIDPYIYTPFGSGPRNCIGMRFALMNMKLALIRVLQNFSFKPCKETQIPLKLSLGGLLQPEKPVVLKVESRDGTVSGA
Cytochrome P450 2D6, sequence (P10635 whole entry): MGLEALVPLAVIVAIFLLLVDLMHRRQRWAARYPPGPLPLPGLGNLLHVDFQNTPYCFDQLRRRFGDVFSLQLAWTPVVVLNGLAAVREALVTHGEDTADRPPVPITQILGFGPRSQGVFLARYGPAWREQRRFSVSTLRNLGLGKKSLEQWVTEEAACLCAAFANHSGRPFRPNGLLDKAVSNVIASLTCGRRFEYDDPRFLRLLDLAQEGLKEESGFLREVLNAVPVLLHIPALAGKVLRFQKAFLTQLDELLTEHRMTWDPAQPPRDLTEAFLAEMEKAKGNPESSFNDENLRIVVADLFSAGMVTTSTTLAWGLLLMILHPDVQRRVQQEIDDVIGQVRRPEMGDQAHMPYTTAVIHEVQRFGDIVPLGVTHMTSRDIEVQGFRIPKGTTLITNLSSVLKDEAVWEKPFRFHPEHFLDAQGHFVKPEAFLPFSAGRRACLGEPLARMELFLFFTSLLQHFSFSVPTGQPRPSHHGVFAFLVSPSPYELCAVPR
Cytochrome P450 2C19, sequence (P33261 whole entry): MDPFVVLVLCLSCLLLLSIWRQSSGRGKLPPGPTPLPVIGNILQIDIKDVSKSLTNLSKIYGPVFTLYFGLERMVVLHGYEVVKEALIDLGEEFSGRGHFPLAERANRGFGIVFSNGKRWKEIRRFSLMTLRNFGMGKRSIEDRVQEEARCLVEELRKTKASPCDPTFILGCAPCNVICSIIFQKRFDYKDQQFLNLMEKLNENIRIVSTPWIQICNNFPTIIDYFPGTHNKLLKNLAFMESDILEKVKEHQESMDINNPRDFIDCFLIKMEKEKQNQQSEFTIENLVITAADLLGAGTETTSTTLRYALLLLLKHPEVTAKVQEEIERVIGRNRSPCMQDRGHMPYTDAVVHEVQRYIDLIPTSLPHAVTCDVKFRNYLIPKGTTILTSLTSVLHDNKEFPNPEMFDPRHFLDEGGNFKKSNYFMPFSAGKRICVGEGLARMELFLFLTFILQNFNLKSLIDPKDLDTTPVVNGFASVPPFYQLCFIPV
Cytochrome P450 2C9, sequence (P11712 whole entry): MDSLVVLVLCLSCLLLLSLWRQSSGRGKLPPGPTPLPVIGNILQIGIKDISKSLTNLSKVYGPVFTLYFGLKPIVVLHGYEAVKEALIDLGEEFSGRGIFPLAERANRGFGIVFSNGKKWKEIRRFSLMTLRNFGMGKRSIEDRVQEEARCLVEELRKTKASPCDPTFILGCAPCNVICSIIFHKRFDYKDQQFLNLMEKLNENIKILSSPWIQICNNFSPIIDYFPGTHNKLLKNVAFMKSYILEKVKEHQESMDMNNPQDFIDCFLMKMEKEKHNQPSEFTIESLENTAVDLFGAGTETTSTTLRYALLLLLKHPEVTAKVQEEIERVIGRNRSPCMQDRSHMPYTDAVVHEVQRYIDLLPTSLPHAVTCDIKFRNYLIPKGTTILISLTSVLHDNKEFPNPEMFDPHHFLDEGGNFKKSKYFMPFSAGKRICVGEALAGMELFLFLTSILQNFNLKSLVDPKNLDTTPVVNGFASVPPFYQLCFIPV

IC50 (Cytochrome P450 2D6): 13.8 µM | IC50 (Cytochrome P450 3A4): 12.8 µM | IC50 (Cytochrome P450 2C19): 19.1 µM | IC50 (Cytochrome P450 2C9): 15.6 µM | IC50 (Cytochrome P450 1A2): 15.6 µM
SMILES: C[C@@H]1Cc2c([nH]c3ccccc23)[C@H](c2c(F)cc(N[C@H]3CCN(CCCF)C3)cc2F)N1CC(F)(F)F [WO2021228210, Compound 4]

From BindingDB's records for patent US20240208932 (Xizang Haisco Pharmaceutical, 2024)
